According to PubChem BioAssay AID330 (DTP/NCI, 2004):
Several values for one entry are separate records, joined by “and”; a condition that tells them apart may be missing. Equal values may be shown once. Toxic doses and inconclusive results are not listed. How the source made its calls: active means survival T/C of 150% or more; inactive means T/C below 125% in these data.

System: P388 leukemia ip, CD2F1 mice, survival T/C
Test: NCI In Vivo Anticancer Drug Screen. Data for tumor model P388 Leukemia (intraperitoneal) in CD2F1 (CDF1) mice
Details: endpoint: median survival time, higher = longer survival
Procedure, shortened: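 Mice carrying the transplanted tumor received test compound or vehicle. Survival was recorded in each group, and the value is the treated-group measurement divided by that of the vehicle-treated control group.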

[1] = dose: 50.0 mg/kg/injection, schedule: Q01DX009 (ip), vehicle: saline with Tween-80
[2] = dose: 100.0 mg/kg/injection, schedule: Q01DX009 (ip), vehicle: saline with Tween-80
[3] = dose: 200.0 mg/kg/injection, schedule: Q01DX009 (ip), vehicle: saline with Tween-80

Measured: T/C

COc1cc(N=Nc2ccc([N+](=O)[O-])cc2)c([OH+]C)cc1[N+]#N.COc1cc(N=Nc2ccc([N+](=O)[O-])cc2)c([OH+]C)cc1[N+]#N.[Cl][Zn][Cl]
inactive: dose: 50.0 mg/kg/injection, schedule: Q01DX009 (ip), vehicle: saline 110 % of control and 112 % of control and 117 % of control | dose: 100.0 mg/kg/injection, schedule: Q01DX009 (ip), vehicle: saline 111 % of control and 117 % of control and 119 % of control | dose: 200.0 mg/kg/injection, schedule: Q01DX009 (ip), vehicle: saline 116 % of control and 119 % of control | dose: 400.0 mg/kg/injection, schedule: Q01DX009 (ip), vehicle: saline 107 % of control

[Cl][Mn][Cl]
inactive: dose: 0.25 mg/kg/injection, schedule: Q01DX009 (ip), vehicle: saline 99 % of control | dose: 0.5 mg/kg/injection, schedule: Q01DX009 (ip), vehicle: saline 90 % of control and 97 % of control | dose: 1.0 mg/kg/injection, schedule: Q01DX009 (ip), vehicle: saline 100 % of control | dose: 2.0 mg/kg/injection, schedule: Q01DX009 (ip), vehicle: saline 88 % of control and 94 % of control | dose: 4.0 mg/kg/injection, schedule: Q01DX009 (ip), vehicle: suspension in saline 119 % of control | dose: 8.0 mg/kg/injection, schedule: Q01DX009 (ip), vehicle: saline 90 % of control | dose: 8.0 mg/kg/injection, schedule: Q01DX009 (ip), vehicle: suspension in saline 97 % of control | dose: 16.0 mg/kg/injection, schedule: Q01DX009 (ip), vehicle: saline 100 % of control | dose: 16.0 mg/kg/injection, schedule: Q01DX009 (ip), vehicle: suspension in saline 116 % of control | dose: 32.0 mg/kg/injection, schedule: Q01DX009 (ip), vehicle: suspension in saline 119 % of control | dose: 64.0 mg/kg/injection, schedule: Q01DX009 (ip), vehicle: saline 100 % of control and 106 % of control | dose: 64.0 mg/kg/injection, schedule: Q01DX009 (ip), vehicle: suspension in saline 97 % of control

COC1=CC(O)(CC(N)=O)c2ccccc2C1=O (stereo unspecified)
inactive: dose: 3.13 mg/kg/injection, schedule: Q01DX009 (ip), vehicle: distilled water + Tween-80 99 % of control | dose: 6.25 mg/kg/injection, schedule: Q01DX009 (ip), vehicle: distilled water + Tween-80 100 % of control | dose: 12.5 mg/kg/injection, schedule: Q01DX009 (ip), vehicle: distilled water + Tween-80 98 % of control | dose: 25.0 mg/kg/injection, schedule: Q01DX009 (ip), vehicle: distilled water + Tween-80 102 % of control | dose: 50.0 mg/kg/injection, schedule: Q01DX009 (ip), vehicle: distilled water + Tween-80 92 % of control | dose: 100.0 mg/kg/injection, schedule: Q01DX009 (ip), vehicle: distilled water + Tween-80 92 % of control

O=C(NC(=O)c1c(F)cccc1F)Nc1cccc(Oc2ncc(Cl)cn2)c1
inactive: dose: 15.0 mg/kg/injection, schedule: Q01DX005 (ip), vehicle: saline with Tween-80 111 % of control | dose: 30.0 mg/kg/injection, schedule: Q01DX005 (ip), vehicle: saline with Tween-80 96 % of control | dose: 60.0 mg/kg/injection, schedule: Q01DX005 (ip), vehicle: saline with Tween-80 94 % of control and 95 % of control

CC(C)(C)CC(C)(C)c1ccc(OCc2ccc(Cl)cc2)cc1
inactive: [1] 100 % of control | [2] 100 % of control | [3] 98 % of control

CCCCCCCCCCCCCCCCS(=O)(=O)CCO
inactive: [1] 95 % of control | [2] 90 % of control | [3] 86 % of control

CC(CC(=O)c1ccccc1)=NCCN=C(C)CC(=O)c1ccccc1.[Cl][Sn][Cl]
inactive: dose: 100.0 mg/kg/injection, schedule: Q01DX001 (ip), vehicle: Klucel (hydroxypropylcellulose) (HPC) 97 % of control | dose: 200.0 mg/kg/injection, schedule: Q01DX001 (ip), vehicle: Klucel (hydroxypropylcellulose) (HPC) 102 % of control | dose: 400.0 mg/kg/injection, schedule: Q01DX001 (ip), vehicle: Klucel (hydroxypropylcellulose) (HPC) 101 % of control

COC(=O)c1nc(=S)[nH]c(C(=O)OC)c1C(=O)c1cccnc1
inactive: dose: 60.0 mg/kg/injection, schedule: Q01DX005 (ip), vehicle: saline 108 % of control | dose: 120.0 mg/kg/injection, schedule: Q01DX005 (ip), vehicle: saline 110 % of control

O=C(NCCCCCNC(=O)C12CC3CC(CC(C3)C1)C2)C12CC3CC(CC(C3)C1)C2
inactive: dose: 50.0 mg/kg/injection, schedule: Q01DX005 (ip), vehicle: Klucel (hydroxypropylcellulose) (HPC) 90 % of control | dose: 50.0 mg/kg/injection, schedule: Q01DX005 (ip), vehicle: saline with Tween-80 102 % of control | dose: 100.0 mg/kg/injection, schedule: Q01DX005 (ip), vehicle: Klucel (hydroxypropylcellulose) (HPC) 89 % of control | dose: 100.0 mg/kg/injection, schedule: Q01DX005 (ip), vehicle: saline with Tween-80 105 % of control | dose: 200.0 mg/kg/injection, schedule: Q01DX005 (ip), vehicle: saline with Tween-80 95 % of control
